Reference: publication PMC3794980, “Identification of Conserved and HLA Promiscuous DENV3 T-Cell Epitopes” (PLoS Neglected Tropical Diseases, 2013)
Where two headings read alike, the source gives them in different places.

Columns and labels:
Experiment in all cases: biochemical
Type in all cases: binding
DRB1*0101 = DRB1*0101 (Homo sapiens, UniProt P01903+P01911, A100R/D57E/F55L/F60I/F76Y/I96L/L162R/M171V/P40L/Q125E/R42F/V115G/Y59C)
DRB1*0405 = DRB1*0405 (Homo sapiens, UniProt P01903+P01911, A100R/A169T/D86S/F76Y/I96L/K127E/L162R/M171V/N62H/P40V/Q125Y/R42H/S133A/S149N/S66Y/V115G/V209L/W38E)
DRB1*0301 = DRB1*0301 (Homo sapiens, UniProt P01903+P01911, A100K/A102G/A103R/A169T/F55Y/I96L/K41T/L162R/M171V/P40S/Q125H/Q178H/Q39Y/R42S/S66N/T106N/T262R/W38E/Y61H)
DRB1*0901 = DRB1*0901 (Homo sapiens, UniProt P01903+P01911, A100R/A103E/D57H/D86V/F55Y/F60I/F76Y/I96F/K127E/L162R/M171V/P40D/Q125H/Q99R/R33Q/R42F/S133A/S66N/T210M/V115G/W38K/Y107V/Y59G/Y89S)
DRB3*0101 = DRB3*0101 (Homo sapiens, UniProt P01903+P79483)
DRB1*1501 = DRB1*1501 (Homo sapiens, UniProt P01903+P01911)
DRB1*0404 = DRB1*0404 (Homo sapiens, UniProt P01903+P01911, A100R/A169T/F76Y/I96L/K127E/L162R/M171V/N62H/P40V/Q125Y/R42H/S133A/S149N/S66Y/V209L/W38E)
DRB1*0701 = DRB1*0701 (Homo sapiens, UniProt P01903+P01911, A100R/A102G/A103Q/D57E/D86V/E43K/F76Y/K127E/L162R/M171V/P40G/Q125H/Q99D/R33Q/R42Y/R54Q/S133A/S66F/T210M/V115G/Y107V/Y59L/Y89S)
DRB1*1101 = DRB1*1101 (Homo sapiens, UniProt P01903+P01911, A100R/A169T/A87E/I96F/K41T/L162R/M171V/P40S/Q125H/Q178H/Q39Y/Q99D/R42S/S66Y/T262R/V115G/W38E)
DRB1*0802 = DRB1*0802 (Homo sapiens, UniProt P01903+P01911, A100R/A103L/A169T/F76Y/H45Y/I96F/K41T/L162R/M171V/P40S/Q125H/Q178H/Q39Y/Q99D/R218S/R42G/S66Y/V115G/W38E)
DRB4*0101 = DRB4*0101 (Homo sapiens, UniProt P01903+P13762, G164S)
DRB5*0101 = DRB5*0101 (Homo sapiens, UniProt P01903+Q30154)
DRB1*0401 = DRB1*0401 (Homo sapiens, UniProt P01903+P01911, A100K/A169T/F76Y/I96L/K127E/L162R/M171V/N62H/P40V/Q125Y/R42H/S133A/S149N/S66Y/V115G/V209L/W38E)
DRB1*1302 = DRB1*1302 (Homo sapiens, UniProt P01903+P01911, A100E/A169T/K41T/L162R/M171V/P40S/Q125H/Q178H/Q39Y/Q99D/R42S/S66N/T262R/V115G/W38E/Y61H)
[1] = competitive inhibition of radiolabeled standard peptide, DRB1*0901, read-out: Binding Affinity (nM) DRB1*0901
[2] = competitive inhibition of radiolabeled standard peptide, '-' distinct from ND, read-out: Binding Affinity (nM) DRB1*0901
[3] = competitive inhibition of radiolabeled standard peptide, '-' distinct from ND, read-out: Binding Affinity (nM) DRB1*1302
[4] = competitive inhibition of radiolabeled standard peptide, DRB1*1302, read-out: Binding Affinity (nM) DRB1*1302

Sequence of DRB1*1101 (P01903 26-254, other chains not shown): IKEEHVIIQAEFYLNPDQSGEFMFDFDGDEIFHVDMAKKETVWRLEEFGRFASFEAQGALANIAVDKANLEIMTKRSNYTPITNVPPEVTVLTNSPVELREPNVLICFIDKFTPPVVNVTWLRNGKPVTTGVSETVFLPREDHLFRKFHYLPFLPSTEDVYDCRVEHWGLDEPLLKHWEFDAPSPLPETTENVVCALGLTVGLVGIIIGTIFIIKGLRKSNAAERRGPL
Sequence of DRB1*0301 (P01903 26-254, other chains not shown): as above
Sequence of DRB1*1302 (P01903 26-254 limits assumed, other chains not shown): as the sequence (P01903 26-254, other chains not shown) above

Compound | IC50 (DRB1*0101) [nM] | IC50 (DRB1*0405) [nM] | IC50 (DRB1*0301) [nM] | IC50 (DRB1*0901; [1]) [nM] | IC50 (DRB3*0101) [nM] | IC50 (DRB1*1501) [nM] | IC50 (DRB1*0404) [nM] | IC50 (DRB1*0701) [nM] | IC50 (DRB1*1101) [nM] | IC50 (DRB1*0802) [nM] | IC50 (DRB4*0101) [nM] | IC50 (DRB5*0101) [nM] | IC50 (DRB1*0401) [nM] | IC50 (DRB1*0901; [2]) [nM] | IC50 (DRB1*1302; [3]) [nM] | IC50 (DRB1*0901) [nM] | IC50 (DRB1*1302) [nM] | IC50 (DRB1*1302; [4]) [nM]
CSCC[C@H](NC(=O)[C@H](CCC(N)=O)NC(=O)[C@H](C)NC(=O)[C@H](Cc1ccc(O)cc1)NC(=O)[C@H](C)NC(=O)[C@H](CCCCN)NC(=O)CNC(=O)[C@H](CC(C)C)NC(=O)[C@H](CS)NC(=O)[C@H](C)NC(=O)[C@@H](NC(=O)[C@H](CCC(=O)O)NC(=O)[C@H](CCCNC(=N)N)NC(=O)[C@H](CC(C)C)NC(=O)[C@@H](N)CO)[C@@H](C)O)C(=O)N[C@@H](Cc1c[nH]c2ccccc12)C(=O)N[C@H](C(=O)O)[C@@H](C)O [NS5 747-763] | 54 | 39 | 5740 | 393 | 8310 | 167 | 111 | 2980 | 80 | 551 | 4660 | – | – | – | – | – | – | –
CC[C@H](C)[C@H](NC(=O)[C@@H]1CCCN1C(=O)[C@H](CC(C)C)NC(=O)CNC(=O)[C@@H](N)CCCCN)C(=O)N[C@@H](CCCNC(=N)N)C(=O)N[C@@H](Cc1ccc(O)cc1)C(=O)N[C@@H](CCC(N)=O)C(=O)N[C@H](C(=O)N[C@H](C(=O)N[C@@H](C)C(=O)N[C@H](C(=O)N[C@@H](CCCCN)C(=O)N[C@@H](CO)C(=O)N[C@@H](CCC(=O)O)C(=O)O)[C@@H](C)O)[C@@H](C)O)[C@@H](C)O [NS3 237-251] | 110 | – | 1820 | – | 19000 | 638 | 310 | 2990 | 807 | 36 | 5.5 | 13 | 13 | 928 | 2620 | – | – | –
CC[C@H](C)[C@H](NC(=O)[C@H](C)NC(=O)[C@H](CC(N)=O)NC(=O)[C@H](CO)NC(=O)[C@H](C)NC(=O)[C@H](CC(C)C)NC(=O)[C@H](CCCNC(=N)N)NC(=O)[C@H](CC(C)C)NC(=O)[C@H](CC(=O)O)NC(=O)[C@H](CCCNC(=N)N)NC(=O)[C@H](CCCNC(=N)N)NC(=O)[C@H](Cc1c[nH]cn1)NC(=O)[C@H](Cc1ccccc1)NC(=O)[C@H](Cc1ccc(O)cc1)NC(=O)[C@@H](N)CCSC)C(=O)O [NS5 765-779] | 41 | 18 | 1280 | – | – | 118 | 34 | 18 | 17 | 7.8 | – | 726 | 4.7 | – | – | 61 | 4.9 | –
CC[C@H](C)[C@H](NC(=O)[C@H](Cc1ccc(O)cc1)NC(=O)CNC(=O)[C@H](CC(C)C)NC(=O)[C@H](CCCCN)NC(=O)[C@H](Cc1c[nH]cn1)NC(=O)[C@H](CC(C)C)NC(=O)CNC(=O)[C@H](CCC(=O)O)NC(=O)CNC(=O)[C@H](CCC(=O)O)NC(=O)[C@@H](NC(=O)CNC(=O)[C@H](CO)NC(=O)[C@H](Cc1ccc(O)cc1)NC(=O)[C@H](CO)NC(=O)[C@@H](N)CC(N)=O)C(C)C)C(=O)O [NS5 501-517] | 7 | 2400 | 4420 | – | 2960 | 3050 | 4370 | 18 | 8180 | 836 | – | 1120 | 74 | – | – | – | – | 4990
CC[C@H](C)[C@H](NC(=O)[C@H](C)NC(=O)[C@H](C)NC(=O)[C@H](C)NC(=O)[C@@H](N)CCC(=O)O)C(=O)N[C@@H](Cc1ccccc1)C(=O)N[C@@H](CCSC)C(=O)N[C@H](C(=O)N[C@@H](C)C(=O)N[C@H](C(=O)N1CCC[C@H]1C(=O)N1CCC[C@H]1C(=O)NCC(=O)N[C@H](C(=O)N[C@@H](C)C(=O)O)[C@@H](C)O)[C@@H](C)O)[C@@H](C)O [NS3 309-323] | 27 | 32 | – | – | 11700 | 363 | 350 | 48 | 93 | 31 | 9.2 | 2520 | 2.4 | – | – | 129 | 2640 | –
CC[C@H](C)[C@H](NC(=O)[C@H](C)NC(=O)[C@H](CC(N)=O)NC(=O)[C@H](CO)NC(=O)[C@H](C)NC(=O)[C@H](CC(C)C)NC(=O)[C@H](CCCNC(=N)N)NC(=O)[C@H](CC(C)C)NC(=O)[C@H](CC(=O)O)NC(=O)[C@H](CCCNC(=N)N)NC(=O)[C@@H](N)CCCNC(=N)N)C(=O)N[C@@H](CS)C(=O)N[C@@H](CO)C(=O)N[C@@H](C)C(=O)N[C@H](C(=O)N1CCC[C@H]1C(=O)N[C@H](C(=O)O)C(C)C)C(C)C [NS5 769-785] | 28 | 16 | 409 | 61 | – | 21 | 93 | 121 | 79 | 28 | 212 | – | 3.6 | – | – | – | – | 4.5
CC[C@H](C)[C@H](NC(=O)[C@H](CCC(=O)O)NC(=O)CNC(=O)[C@@H](NC(=O)[C@@H](NC(=O)[C@@H](NC(=O)[C@H](CCC(N)=O)NC(=O)[C@H](Cc1ccccc1)NC(=O)[C@@H](NC(=O)CNC(=O)[C@@H]1CCCN1C(=O)[C@H](CCSC)NC(=O)[C@@H](NC(=O)[C@H](CCC(N)=O)NC(=O)[C@@H](N)Cc1ccccc1)[C@@H](C)O)[C@@H](C)O)[C@@H](C)O)[C@@H](C)O)[C@@H](C)O)C(=O)O [NS3 109-123] | 148 | – | 16400 | – | 4140 | 2180 | 961 | 1020 | 3860 | 557 | – | 2750 | 222 | – | – | 1850 | 7040 | –
CC[C@H](C)[C@H](NC(=O)[C@H](CCCCN)NC(=O)[C@H](C)NC(=O)[C@H](CCCCN)NC(=O)CNC(=O)[C@H](Cc1c[nH]c2ccccc12)NC(=O)[C@@H](N)[C@@H](C)O)C(=O)N[C@H](C(=O)N[C@H](C(=O)N[C@@H](C)C(=O)N[C@@H](CCC(=O)O)C(=O)N[C@H](C(=O)N[C@@H](CCC(N)=O)C(=O)N[C@@H](CC(N)=O)C(=O)N[C@@H](CO)C(=O)O)[C@@H](C)O)[C@@H](C)O)C(C)C [NS1 117-131] | 1090 | 285 | 4160 | – | 534 | 3750 | 695 | 6690 | 18200 | – | – | 3930 | 28 | 2630 | 1240 | – | – | –
CC(C)C[C@H](NC(=O)[C@@H](NC(=O)CNC(=O)[C@H](CC(N)=O)NC(=O)[C@H](CO)NC(=O)[C@H](Cc1c[nH]c2ccccc12)NC(=O)[C@H](CC(C)C)NC(=O)[C@@H](NC(=O)[C@H](Cc1c[nH]cn1)NC(=O)[C@H](CO)NC(=O)[C@H](CCCCN)NC(=O)[C@@H]1CCCN1C(=O)[C@@H](N)Cc1c[nH]c2ccccc12)[C@@H](C)O)C(C)C)C(=O)N[C@@H](CCC(=O)O)C(=O)N[C@@H](CO)C(=O)O [NS1 225-239] | 3920 | 4420 | 520 | – | – | 4120 | 3930 | 5690 | 12900 | 4830 | 6540 | – | 322 | 9390 | 59 | – | – | –
